Laboratory results published in article PMC8634379, “From the Design to the In Vivo Evaluation of Benzohomoadamantane-Derived Soluble Epoxide Hydrolase Inhibitors for the Treatment of Acute Pancreatitis” (Journal of Medicinal Chemistry, 2021).
Like-named read-outs stand apart in the source and are kept apart here.

What was measured:
[1] = tested on: cerulein-induced acute pancreatitis; assay: In vivo efficacy, cerulein-induced acute pancreatitis murine model; design: species or system C57BL/6 male mice
From the text: Forty-one male C57BL/6 mice (8-week-old; approximately 24 g) were supplied by Envigo (Barcelona, Spain) (Ref 16512). During the experimental procedure, the animals were identified with a permanent marker (tail code numbers). Upon arrival, the animals were housed in groups of 8–9 animals/cage in polysulfone maintenance cages (480 × 265 × 210 mm, with a surface area of 940 cm^2) with wire tops and wood chip bedding. The animals were kept in an environmentally controlled room (ventilation, temperature 22 ± 2 °C, and humidity 35–65%) on a 12 h light/dark cycle. They underwent a period of 7 days of acclimatization between the date of arrival and the start of the procedure. […] The maintenance diet was supplied by Harlan Interfauna Ibérica S.L. (2018 Harlan Teklad Global Diets). Diet was provided to the animals ad libitum, but they were fasted overnight before the first cerulein injection, and food was replaced after the last cerulein injection. Tap water was supplied by CASSA (Servei d’Aigües de Sabadell) ad libitum. The animals were maintained in accordance with the European Directive for the Protection of Vertebrate Animals Used for Experimental and other Scientific Purposes (86/609/EU). Decree 214/1997 of 30th July. Ministry of agriculture, livestock and fishing of the Autonomous Government of Catalonia, Spain. Royal Decree 53/2013 of 1st February (Spain). All the experimental procedures were approved by the Ethical Committee on human and animal experimentation (CEEAH) of Universitat Autònoma de Barcelona (UAB) (procedure number: 4107) and by the Animal Experimentation Commission of the Generalitat de Catalunya (Catalan Government) (DAAM: 10146). The test item was dissolved in vehicle 10% 2-hydroxypropyl-β-cyclodextrin (CAS 128446-35-5) Sigma-Aldrich (Ref 332607). The vehicle was prepared the day before and kept at 4 °C. Pancreatitis induction: Mice (n = 41) were weighed, identified by a distinct number at the base of the tail, and fasted overnight. Cerulein (cerulein and cerulein + 22 groups) (50 μg/kg, prepared in 0.9% NaCl) or vehicle (0.9% NaCl) (control group) were intraperitoneally injected (V = 5 mL/kg) 12 consecutive times, at 1 h intervals (h = 0–11). Food was replaced after the last injection. A satellite experiment was designed where animals (n = 3) were distributed in control, cerulein, and cerulein + 22-treated groups. Pancreatitis was induced by seven injections of cerulein (or vehicle in the control group) at 1 h intervals (h = 0–6). Treatments: the test item was administered intraperitoneally in one injection to 22_03 (0.3 mg/kg) and 22_01 (0.1 mg/kg) groups at 14 h after the first cerulein injection. Animals from the control and cerulein groups received vehicle administration (10% 2-hydroxypropyl-β-cyclodextrin) (V = 10 mL/kg). Extra groups were treated 2 h after the first cerulein injection: 22 (0.3 mg/kg), control, and cerulein groups (10% 2-hydroxypropyl-β-cyclodextrin). Study end: 24 h after the first cerulein injection, animals were weighed and anesthetized with isoflurane. Blood was collected from the vena cava in an Eppendorf containing K2-EDTA and centrifuged at 10,000 rpm for 5 min for plasma collection. Plasma was stored at −80 °C until analysis. The mice were sacrificed by cervical dislocation and the pancreases were dissected and weighed. Pancreases from three animals were frozen in liquid N2 and stored at −80 °C until analysis. Pancreases from five mice were sectioned and one part was placed in 10% formalin and sent to Anapath (Granada, Spain) for histology analysis and the other was immediately placed in RNAse-free eppendorfs, frozen in N2, and stored at −80 °C for gene expression assays.
Pancreatic samples were treated with increasing grade alcohols and two xylol baths and embedded in paraffin. They were subsequently cut using a microtome and processed for staining. […]

[2] = Concentrations in plasma and pancreatic tissue in the efficacy study; assay type: in vivo, C57BL/6 male mice; conditions: 10 h post-administration; for concentration at 10 h: male, C57BL/6, mouse, intraperitoneal
From the text: During the experimental procedure, the animals were identified with a permanent marker (tail code numbers). […] They underwent a period of 7 days of acclimatization between the date of arrival and the start of the procedure. […] Diet was provided to the animals ad libitum, but they were fasted overnight before the first cerulein injection, and food was replaced after the last cerulein injection. Tap water was supplied by CASSA (Servei d’Aigües de Sabadell) ad libitum. […] Ministry of agriculture, livestock and fishing of the Autonomous Government of Catalonia, Spain. […] The vehicle was prepared the day before and kept at 4 °C. Pancreatitis induction: Mice (n = 41) were weighed, identified by a distinct number at the base of the tail, and fasted overnight. Cerulein (cerulein and cerulein + 22 groups) (50 μg/kg, prepared in 0.9% NaCl) or vehicle (0.9% NaCl) (control group) were intraperitoneally injected (V = 5 mL/kg) 12 consecutive times, at 1 h intervals (h = 0–11). Food was replaced after the last injection. A satellite experiment was designed where animals (n = 3) were distributed in control, cerulein, and cerulein + 22-treated groups. Pancreatitis was induced by seven injections of cerulein (or vehicle in the control group) at 1 h intervals (h = 0–6). […] Animals from the control and cerulein groups received vehicle administration (10% 2-hydroxypropyl-β-cyclodextrin) (V = 10 mL/kg). Extra groups were treated 2 h after the first cerulein injection: 22 (0.3 mg/kg), control, and cerulein groups (10% 2-hydroxypropyl-β-cyclodextrin). […] Blood was collected from the vena cava in an Eppendorf containing K2-EDTA and centrifuged at 10,000 rpm for 5 min for plasma collection. Plasma was stored at −80 °C until analysis. The mice were sacrificed by cervical dislocation and the pancreases were dissected and weighed. Pancreases from three animals were frozen in liquid N2 and stored at −80 °C until analysis. Pancreases from five mice were sectioned and one part was placed in 10% formalin and sent to Anapath (Granada, Spain) for histology analysis and the other was immediately placed in RNAse-free eppendorfs, frozen in N2, and stored at −80 °C for gene expression assays.

[3] = Cerulein + 22 (0.3 mg/Kg), samples 1-5, score 0 (no changes) to 4 (very serious)

**Q.** With `O=C(NC12CC3CC(Cl)(CC(C1)c1ccccc13)C2)N[C@H]1CC[C@H](Oc2ccc(C(=O)O)cc2)CC1` [Compound 22, 4-[((1r,4r)-4-(3-(9-Chloro-5,6,8,9,10,11-hexahydro-7H-5,9:7,11-dimethanobenzo[9]annulen-7-yl)ureido)cyclohexyl)oxy]benzoic Acid] as the compound, how does the “body weight change at the end of the study” value ([1]; 22 0.1 mg/kg IP single dose, did not reach statistical significance) read?
**A.** Its value is “increased body weight”.

**Q.** And the “body weight change at the end of the study” value ([1]; 22 0.3 mg/kg IP single dose, p < 0.01 vs Cerulein group)?
**A.** The value was “increased body weight”.

**Q.** And the “histologic score: Hemorrhage” value ([1]; Cerulein + 22 (0.1 mg/Kg), samples 1-5, score 0 (no changes) to 4 (very serious))?
**A.** The value was 0.

**Q.** And the “histologic score: Hemorrhage” value [1, 3]?
**A.** The value was 0.

**Q.** What about the “histologic score: Mononuclear inflammatory cells” value [1, 3] of the same compound?
**A.** Its value is 0.

**Q.** And the “histologic score: Necrosis” value [1, 3]?
**A.** The value was 0.

**Q.** And the “histologic analysis of pancreas, effect on cerulein-induced damage” value ([1]; both doses (0.1 and 0.3 mg/kg))?
**A.** Its value is “ameliorated cerulein-induced effects”.

**Q.** What about the “histologic analysis of pancreas, effect on cerulein-induced damage” value ([1]; higher dose (0.3 mg/kg)) of the same compound?
**A.** The value was “more efficiently reversed the pancreatic damage, edema, and neutrophil infiltration”.

**Q.** And the “concentration in pancreatic tissues” value ([2]; 0.1 mg/kg IP)?
**A.** The value was “no amount of 22 was detected”.

**Q.** What about the concentration at 10 h ([2]; pancreas, 0.3 mg/kg IP, read-out: concentration in pancreas) of the same compound?
**A.** Its concentration at 10 h is 29.9 ng/g.

**Q.** What about the concentration at 10 h ([2]; plasma, 0.1 mg/kg IP, read-out: plasma level) of the same compound?
**A.** Its concentration at 10 h is 14 nM.

**Q.** And the concentration at 10 h ([2]; plasma, 0.3 mg/kg IP, read-out: plasma level)?
**A.** The concentration at 10 h was 175 nM.
